# How the values were obtained:
# [1] = test system: Mgp^−/− mouse model of AVM; assay: In vivo computed tomography angiography (CTA) of brain vasculature
# Procedure: In vivo ultra-high-resolution computed tomography angiography (CTA) was performed to study changes in neurovascular architecture like methods described previously. (Mukundan S, Jr., […], Badea C T, et al. A liposomal nanoscale contrast agent for preclinical CT in mice. AJR Am J Roentgenol. 2006; 186(2):300-307) ([…], Rendon D, et al. Ultra-High-Resolution In vivo Computed Tomography Imaging of Mouse Cerebrovasculature Using a Long Circulating Blood Pool Contrast Agent. Scientific reports. 2015; 5:10178). Briefly, mice were anesthetized using 3-4% isoflurane, positioned on a CT cradle and maintained at 1-1.5% isoflurane delivered via nose cone. Mice were intravenously injected a long circulating liposomal-iodine blood pool contrast agent (2.2 g/kg body weight) for CTA^8,9 and scanned on a small animal micro-CT scanner Rigaku CT Lab GX90-1-E. The following scan parameters were used: High Resolution Scan Mode, 70 kVp, 114 uA, 10 mm FOV, 1440 projections, 20 μm voxel size, 14 min scan time. All animal protocols were approved by the USC's Institutional Animal Care and Use Committee (IACUC) and strictly adhered to. MiR-18a was co-administered with Ago-2 (0.0008 nmol/mouse) to increase stability and cellular uptake^9 (Ferreira R, Santos T, Amar A, et al. Argonaute-2 promotes miR-18a entry in human brain endothelial cells. J Am Heart Assoc. 2014; 3(3):e000968). (FIG. 9). Details about randomization, blinding, group size and inclusion/exclusion criteria have been included in Methods. […] The vascular data was quantified using ImageJ. […] The pixels were analyzed as particles and normalized to results from the wildtype mice (WT, Mgp^+/+).
# AVM-BEC = assay: Proteome Profiler Human Angiogenesis Array of AVM-BEC lysates; format: cell-based
# Source text: Human surgical specimens were obtained following written informed consent from patients in accordance with Declaration of Helsinki guidelines and the Institutional Review Board (HS-04B053), at Keck School of Medicine, USC. AVM-BECs were isolated from brain tissues of patients who underwent microsurgical AVM resection. Control BECs were isolated from the structurally normal […] of patients who underwent temporal lobectomy for intractable epilepsy. Endothelial cell (EC) isolation and culture were described^5,9. (Stapleton C J, Armstrong D L, Zidovetzki R, Liu C Y, Giannotta S L, Hofman F M. Thrombospondin-1 modulates the angiogenic phenotype of human cerebral arteriovenous malformation endothelial cells. Neurosurgery. 2011; 68(5):1342-1353) (Ferreira R, Santos T, Amar A, et al. Argonaute-2 promotes miR-18a entry in human brain endothelial cells. J Am Heart Assoc. 2014; 3(3):e000968) ECs were only used between passages 3-5. Experiments were performed under shear flow conditions (12 dyn/cm^2) to reproduce arterial flow^6. (Ferreira R, Santos T, Amar A, et al. MicroRNA-18a improves human cerebral arteriovenous malformation endothelial cell function. Stroke. 2014; 45(1):293-297). For hypoxic experiments, cells were cultured in a Galaxy 48R (Eppendorf) incubator at 3% O2. MicroRNAs were co-administered with Ago-2 to increase the cellular uptake of miR-18a^9 (Ferreira R, Santos T, Amar A, et al. Argonaute-2 promotes miR-18a entry in human brain endothelial cells. J Am Heart Assoc. 2014; 3(3):e000968) (FIG. 9). Methods regarding cell treatments and transfections were included in Data.
# MiR-18a (hsa-miR-18a-5p, 40 nM, Dharmacon) or a scramble microRNA (40 nM, Dharmacon) in nuclease-free water was added with argonaute 2 (Ago-2, 0.4 nM, Abcam) as the microRNA carrier and stabilizer^9. (Ferreira R, Santos T, Amar A, et al. Argonaute-2 promotes miR-18a entry in human brain endothelial cells. J Am Heart Assoc. 2014; 3(3):e000968). No transfection reagent was used with miR-18a or scramble microRNA treatments. Recombinant human TSP-1 (R&D Systems) stock solution was prepared in PBS and further diluted in culture medium to be used at a final concentration of 1000 ng/mL. Cells were treated during 24 h for mRNA and 48 h for protein expression studies. NEO100 (NeOnc Technologies) stock was prepared in DMSO and used immediately or stored at −20° C.
# The levels of angiogenesis-related proteins were analyzed using the Proteome Profiler™ Human Angiogenesis Array kit (R&D Systems) following the manufacturer's instructions. The protocol for western blot was published^10. (Marín-Ramos N I, Alonso D, Ortega-Gutiérrez S, et al. New inhibitors of angiogenesis with antitumor activity in vivo. J Med Chem. 2015; 58(9):3757-3766). Information about antibodies used was included in Table 1. Membranes were visualized and quantified using a C-Digit Blot scanner (Li-Cor) or a iBright CL1000 (Thermo Fisher Scientific).
substance,measurement,setting,value
hsa-miR-18a-5p (UAGGUGCAUCUAGUGCAGAUAG; chemistry not given here; listed as Homo sapiens) [small non-coding RNA molecule involved in post-transcriptional regulation of gene expression; Dharmacon],AzACA vessel density compared to healthy wildtype mice,[1]; 0.08 nmol/mouse IN daily for 2-weeks with Ago-2,92-94%
same,brain vasculature and leakage (CTA),"[1]; Mgp^−/− mice, IN 2-weeks",normalized
same,calcifications found in carotids,"[1]; Mgp^−/− mice, IN 2-weeks",no effect
same,"bFGF levels, decrease compared to scramble miR-treated AVM-BEC","AVM-BEC; shear flow 12 dyn/cm2, miR-18a 40 nM with Ago-2 0.4 nM, n=1",2 fold
same,"IGFBP-1 levels, upregulation compared to scramble miR-treated AVM-BEC","AVM-BEC; shear flow, miR-18a 40 nM with Ago-2, n=1",2 fold
same,TSP-1 protein levels in AVM-BEC lysates,"AVM-BEC; vs scramble miR, n=1",did not observe any relevant differences
same,downregulation of PAI-1,"AVM-BEC; vs scramble miR, n=1",20%
same,upregulation of endothelin-1 (ET-1),"AVM-BEC; vs scramble miR, n=1",> 20%
same,upregulation of pentraxin 3 (PTX3),"AVM-BEC; vs scramble miR, n=1",> 20%

# — patent US20230212571A1, “COMPOSITIONS AND METHODS FOR DELIVERING POLYNUCLEOTIDES” (NeOnc Technologies, Inc., priority 2020, published 2023)
